Test results taken from patent US7932384B2, “Reverse-turn mimetics and method relating thereto” (Choongwae Pharma Corporation, priority 2001, dated 2011).

Columns and labels:
Format in all cases: cell-based
[1] = test system: K562/VIN; test: Sulforhodamine B (SRB) assay, K562/VIN; conditions: Leukemia, 48 hours
Procedure: (§1) Growth inhibitory effect of Compound A on the cells listed below was measured by the sulforhodamine B assay. SW480 cells in 100 μl media were plated in each well of 96-well plate and allowed to attach for 24 hours. Compound A was added to the wells to produce the desired final concentrations, and the plates were incubated at 37° C. for 48 hours. The cells were then fixed by gentle addition of 100 μl of cold (4° C.) 10% trichloroacetic acid to each well, followed by incubation at 4° C. for 1 hour. Plates were washed with deionized water five times and allowed to air dry. The cells were then stained by addition of 100 μl SRB solution (0.4% SRB(w/v) in 1% acetic acid (v/v)) to wells for 15 min. After staining, the plates were quickly washed five times with 1% acetic acid to remove any unbound dye, and allowed to air dry. Bound dye was solubilized with 10 mmol/L Tris base (pH 10.5) prior to reading the plates. The optical density (OD) was read on a plate reader at a wavelength of 515 nm with Molecular Device. Inhibition of growth was expressed as relative viability (% of control) and GI50 was calculated from concentration-response curves after log/probit transformation.
(§2) The values in Table 6 are in μg/ml.

[2] = test system: HCC2998; test: Sulforhodamine B (SRB) assay, HCC2998; conditions: Colon, HCC2998, 48 hours
Procedure: as §1, §2

[3] = test system: KM12; test: Sulforhodamine B (SRB) assay, KM12; conditions: Colon, KM12, 48 hours
Procedure: as §1, §2

[4] = test system: HT1080; test: Sulforhodamine B (SRB) assay, HT1080; conditions: Prostate, HT1080, 48 hours
Procedure: as §1, §2

[5] = test system: HCT15; test: Sulforhodamine B (SRB) assay, HCT15; conditions: Colon, HCT15, 48 hours
Procedure: as §1, §2

[6] = test system: K562; test: Sulforhodamine B (SRB) assay, K562; conditions: Leukemia, K562, 48 hours
Procedure: as §1, §2

[7] = test system: NCI H460; test: Sulforhodamine B (SRB) assay, NCI H460; conditions: Lung, NCI H460, 48 hours
Procedure: as §1, §2

[8] = test system: SK-MEL-5; test: Sulforhodamine B (SRB) assay, SK-MEL-5; conditions: Melanoma, SK-MEL-5, 48 hours
Procedure: as §1, §2

[9] = test system: HL60; test: Sulforhodamine B (SRB) assay, HL60; conditions: Leukemia, HL60, 48 hours
Procedure: as §1, §2

[10] = test system: COLO205; test: Sulforhodamine B (SRB) assay, COLO205; conditions: Colon, COLO205, 48 hours
Procedure: as §1, §2

[11] = test system: A549; test: Sulforhodamine B (SRB) assay, A549; conditions: Lung, A549, 48 hours
Procedure: as §1, §2

[12] = test system: A375; test: Sulforhodamine B (SRB) assay, A375; conditions: Melanoma, A375, 48 hours
Procedure: as §1, §2

[13] = test system: UACC62; test: Sulforhodamine B (SRB) assay, UACC62; conditions: Melanoma, UACC62, 48 hours
Procedure: as §1, §2

[14] = test system: MCF7; test: Sulforhodamine B (SRB) assay, MCF7; conditions: Breast, MCF7, 48 hours
Procedure: as §1, §2

[15] = test system: T84; test: Sulforhodamine B (SRB) assay, T84; conditions: Colon, T84, 48 hours
Procedure: as §1, §2

[16] = test system: SK-MEL-28; test: Sulforhodamine B (SRB) assay, SK-MEL-28; conditions: Melanoma, SK-MEL-28, 48 hours
Procedure: as §1, §2

[17] = test system: LOX-IMVI; test: Sulforhodamine B (SRB) assay, LOX-IMVI; conditions: Melanoma, 48 hours
Procedure: as §1, §2

[18] = test system: RPMI8226; test: Sulforhodamine B (SRB) assay, RPMI8226; conditions: Leukemia, RPMI8226, 48 hours
Procedure: as §1, §2

[19] = test system: DLD-1; test: Sulforhodamine B (SRB) assay, DLD-1; conditions: Colon, DLD-1, 48 hours
Procedure: as §1, §2

[20] = test system: LOVO; test: Sulforhodamine B (SRB) assay, LOVO; conditions: Colon, 48 hours
Procedure: as §1, §2

[21] = test system: K562/ADR; test: Sulforhodamine B (SRB) assay, K562/ADR; conditions: Leukemia, 48 hours
Procedure: as §1, §2

[22] = test system: CAKI-1; test: Sulforhodamine B (SRB) assay, CAKI-1; conditions: Renal, CAKI-1, 48 hours
Procedure: as §1, §2

[23] = test system: SW620; test: Sulforhodamine B (SRB) assay, SW620; conditions: Colon, SW620, 48 hours
Procedure: as §1, §2

[24] = test system: HT29; test: Sulforhodamine B (SRB) assay, HT29; conditions: Colon, HT29, 48 hours
Procedure: as §1, §2

[25] = test system: PC3; test: Sulforhodamine B (SRB) assay, PC3; conditions: Prostate, PC3, 48 hours
Procedure: as §1, §2

[26] = test system: HCT116; test: Sulforhodamine B (SRB) assay, HCT116; conditions: Colon, HCT116, 48 hours
Procedure: as §1, §2

[27] = test system: SW480-Kribb; test: Sulforhodamine B (SRB) assay, SW480-Kribb; conditions: Colon, 48 hours
Procedure: as §1, §2

[28] = test system: NCI H23; test: Sulforhodamine B (SRB) assay, NCI H23; conditions: Lung, NCI H23, 48 hours
Procedure: as §1, §2

[29] = test system: G361; test: Sulforhodamine B (SRB) assay, G361; conditions: Melanoma, G361, 48 hours
Procedure: as §1, §2

[30] = test system: HMV-I; test: Sulforhodamine B (SRB) assay, HMV-I; conditions: Melanoma, 48 hours
Procedure: as §1, §2

[31] = test system: ACHN; test: Sulforhodamine B (SRB) assay, ACHN; conditions: Renal, 48 hours
Procedure: as §1, §2

[32] = test system: A431; test: Sulforhodamine B (SRB) assay, A431; conditions: Melanoma, A431, 48 hours
Procedure: as §1, §2

[33] = test system: 786-0; test: Sulforhodamine B (SRB) assay, 786-0; conditions: Renal, 786-0, 48 hours
Procedure: as §1, §2

[34] = test system: RPMI7951; test: Sulforhodamine B (SRB) assay, RPMI7951; conditions: Melanoma, RPMI7951, 48 hours
Procedure: as §1, §2

[35] = test system: MCF7/ADR; test: Sulforhodamine B (SRB) assay, MCF7/ADR; conditions: Breast, 48 hours
Procedure: as §1, §2

[36] = test system: SW480-CWP; test: Sulforhodamine B (SRB) assay, SW480-CWP; conditions: Colon, 48 hours
Procedure: as §1, §2

[37] = test system: 293; test: Sulforhodamine B (SRB) assay, 293; conditions: Renal, 293, 48 hours
Procedure: as §1, §2

[38] = test system: CRL1579; test: Sulforhodamine B (SRB) assay, CRL1579; conditions: Melanoma, CRL1579, 48 hours
Procedure: as §1, §2

[39] = test system: CACO-2; test: Sulforhodamine B (SRB) assay, CACO-2; conditions: Colon, CACO-2, 48 hours
Procedure: as §1, §2

[40] = test system: A253; test: Sulforhodamine B (SRB) assay, A253; conditions: Melanoma, A253, 48 hours
Procedure: as §1, §2

[41] = test system: M14; test: Sulforhodamine B (SRB) assay, M14; conditions: Melanoma, M14, 48 hours
Procedure: as §1, §2

With N.N.[Cl][Pt][Cl] [Cisplatin, cisplatin, reference compound] the “GI50 (SRB assay)” value [1] was over 10 µg/mL, the “GI50 (SRB assay)” value [2] was over 10 µg/mL and the “GI50 (SRB assay)” value [3] was over 10 µg/mL. For the same compound, the “GI50 (SRB assay)” value [4] was over 10 µg/mL, the “GI50 (SRB assay)” value [5] was over 10 µg/mL and the “GI50 (SRB assay)” value [6] was over 10 µg/mL. For the same compound, the “GI50 (SRB assay)” value [7] was over 10 µg/mL, the “GI50 (SRB assay)” value [8] was over 10 µg/mL and the “GI50 (SRB assay)” value [9] was over 10 µg/mL. For the same compound, the “GI50 (SRB assay)” value [10] was over 10 µg/mL, the “GI50 (SRB assay)” value [11] was over 10 µg/mL and the “GI50 (SRB assay)” value [12] was over 10 µg/mL. The “GI50 (SRB assay)” value [13] was over 10 µg/mL, the “GI50 (SRB assay)” value [14] was over 10 µg/mL and the “GI50 (SRB assay)” value [15] was over 10 µg/mL. For the same compound, the “GI50 (SRB assay)” value [16] was over 10 µg/mL, the “GI50 (SRB assay)” value [17] was over 10 µg/mL and the “GI50 (SRB assay)” value [18] was over 10 µg/mL. For the same compound, the “GI50 (SRB assay)” value [19] was over 10 µg/mL, the “GI50 (SRB assay)” value [20] was over 10 µg/mL and the “GI50 (SRB assay)” value [21] was over 10 µg/mL. The “GI50 (SRB assay)” value [22] was over 10 µg/mL, the “GI50 (SRB assay)” value [23] was over 10 µg/mL and the “GI50 (SRB assay)” value [24] was over 10 µg/mL. The “GI50 (SRB assay)” value [25] was over 10 µg/mL, the “GI50 (SRB assay)” value [26] was over 10 µg/mL and the “GI50 (SRB assay)” value [27] was over 10 µg/mL.

In the case of “2-Methyl-5-(p-hydroxyphenylmethyl)-7-naphthylmethyl-3,6-dioxo-hexahydro-[1,2,4]triazolo[4,5-a]pyrazine-1-carboxylic acid benzylamide [Example 4]”, the “GI50 (SRB assay)” value [28] was 1.296 µg/mL, the “GI50 (SRB assay)” value [1] was 1.640 µg/mL and the “GI50 (SRB assay)” value [2] was 1.047 µg/mL. The “GI50 (SRB assay)” value [29] was 0.584 µg/mL, the “GI50 (SRB assay)” value [3] was 1.451 µg/mL and the “GI50 (SRB assay)” value [4] was 1.469 µg/mL. For the same compound, the “GI50 (SRB assay)” value [5] was 2.042 µg/mL, the “GI50 (SRB assay)” value [6] was 1.247 µg/mL and the “GI50 (SRB assay)” value [30] was 1.153 µg/mL. For the same compound, the “GI50 (SRB assay)” value [7] was 1.498 µg/mL, the “GI50 (SRB assay)” value [31] was 1.263 µg/mL and the “GI50 (SRB assay)” value [8] was 0.888 µg/mL. The “GI50 (SRB assay)” value [9] was 1.243 µg/mL, the “GI50 (SRB assay)” value [10] was 1.136 µg/mL and the “GI50 (SRB assay)” value [32] was 1.083 µg/mL. The “GI50 (SRB assay)” value [33] was 1.417 µg/mL, the “GI50 (SRB assay)” value [11] was 1.386 µg/mL and the “GI50 (SRB assay)” value [12] was 1.391 µg/mL. The “GI50 (SRB assay)” value [13] was 0.563 µg/mL, the “GI50 (SRB assay)” value [14] was 7.355 µg/mL and the “GI50 (SRB assay)” value [15] was 1.134 µg/mL. For the same compound, the “GI50 (SRB assay)” value [16] was 1.291 µg/mL, the “GI50 (SRB assay)” value [17] was 1.526 µg/mL and the “GI50 (SRB assay)” value [34] was 0.936 µg/mL. The “GI50 (SRB assay)” value [19] was 1.775 µg/mL, the “GI50 (SRB assay)” value [20] was 0.532 µg/mL and the “GI50 (SRB assay)” value [35] was 9.487 µg/mL. The “GI50 (SRB assay)” value [36] was 0.980 µg/mL, the “GI50 (SRB assay)” value [21] was 7.682 µg/mL and the “GI50 (SRB assay)” value [22] was 0.467 µg/mL. For the same compound, the “GI50 (SRB assay)” value [23] was 1.426 µg/mL, the “GI50 (SRB assay)” value [37] was 0.731 µg/mL and the “GI50 (SRB assay)” value [24] was 1.694 µg/mL. For the same compound, the “GI50 (SRB assay)” value [38] was 1.830 µg/mL, the “GI50 (SRB assay)” value [25] was 1.207 µg/mL and the “GI50 (SRB assay)” value [39] was 1.201 µg/mL. The “GI50 (SRB assay)” value [26] was 0.96 µg/mL, the “GI50 (SRB assay)” value [40] was 1.398 µg/mL and the “GI50 (SRB assay)” value [27] was 1.137 µg/mL. The “GI50 (SRB assay)” value [41] was 2.289 µg/mL.
